Five compounds from patent publication US20060084615A1, “Puerarin derivatives and their medical uses” (priority 2004, published 2006) can be followed below.

The subject of data set [1] is myocardial ischemic rats induced by posterior pituitary injection. The data set is described as follows: Acute myocardial ischemia induced by posterior pituitary extract injection, ECG T wave variation. Type of data set: in vivo, SD rats. The settings on record: for Amplitude of T wave: i.g. 5 days plus day 6, X ± SD, n = 10; for Effect against myocardial ischemia in rats induced by posterior pituitary injection: doses 0.8 g/kg puerarin, 1.12 g/kg 4ac, 1.20 g/kg 5ac, 1.28 g/kg 6ac (equivalent to 0.8 g/kg puerarin). Here is the method:
Puerarin was purchased from Beijing Union Pharmaceutical Factory (PRC). Puerarin derivatives 4ac, 5ac and 6ac were supplied by The Hong Kong Polytechnic University. The puerarin was dissolved in 1:1 of PEG400 and sterilized distilled water to make 0.8 g/kg body weight, 10 ml/kg body weight solutions for i.g. feeding.
Puerarin derivative 4ac was dissolved in 1:1 of PEG400 and sterilized distilled water to make 1.12 g/kg, 10 ml/kg solution for intra-gastro (i.g.) feeding. Puerarin derivative 5ac was dissolved in 1:1 of PEG400 and sterilized distilled water to make 1.20 g/kg, 10 ml/kg solution for i.g. feeding. Puerarin derivative 6ac was dissolved in 1:1 of PEG400 and sterilized distilled water to make 1.28 g/kg, 10 ml/kg solution for ig feeding. The concentrations of each solution were selected such that 0.8 g/kg of equivalent puerarin will be administered to each animal.
Propranolol hydrochloride at 10 mg/tablet, was from the Shantou Jinshi Pharmaceuticals (PRC, batch no: 020802). Propranolol hydrochloride is a drug prescribed for myocardial ischemia. It is expected to decrease the T wave elevation in ECG during myocardial ischemia. The drug was dissolved in sterilized distilled water to make a 0.2 mg/ml, 10 ml/kg solution for i.g. feeding.
Sixty SPF grade SD rats weighing 200±20 g of both sexes were grouped evenly into six groups according to their weight and sex, and fed i.g. according to the following protocol: • a) Normal: distilled water 10 ml/kg; • b) Positive control: propranolol hydrochloride […], 10 ml/kg; • c) Puerarin solution: puerarin 0.8 g/kg, 10 ml/kg; • d) Puerarin derivative 4ac solution: 4ac 1.12 g/kg, 10 ml/kg; • e) Puerarin derivative 5ac solution: 5ac 1.20 g/kg, 10 ml/kg; • f) Puerarin derivative 6ac solution: 6ac 1.28 g/kg, 10 ml/kg.
The rats were administered the respective treatments for five consecutive days. On the sixth day, one hour after the administration of the treatment, the rats were anesthetized with 3% pentobarbital sodium at a dose of 40 mg/kg i.p. Two terminal leads were connected to the rats to record the normal electrocardiograph (ECG).
When the ECG reading became steady, 1 u/kg of posterior pituitary extract injection (obtained from the Nanjing Xintian Biochemical Pharmaceuticals Company Ltd; batch no 020601) was given intraveneously at the tail vein. Posterior pituitary extract induces acute myocardial ischemia. On ECG, the extract causes the T wave to elevate, flatten and sometimes invert. It also elevates the ST segment and lengthens the PR and QT intervals.
The ECG was recorded immediately for 30 minutes. The variations in T wave were calculated and analyzed statistically.

Data set [2] can be described thus: in vivo. Here is the method: Agilent 1100 HPLC, DAD diode, HP1100 chromatography workstation and Agilent XDB-C18 column (250 mm×4.6 mm D, 5 μm) were used. The pre-column is Agilent XDB-C18 column (12.5 mm×4.6 mm D, 5 μm). Gradient elution was carried according to Table 1 below: […]
Sprague-Dawley (SD) rats weighing 180±20 g, both male and female were provided by the Laboratory Animal Centre of the Guangzhou Traditional Chinese Medicine (TCM) University.
Two hundred and sixty SD rats were randomly divided into 20 groups with 13 rats in each group. The rats were fasted for one day before the test.
Puerarin, 4ac, 5ac and 6ac was dissolved in sterilized water to produce suspension of final dosage of 400 mg/kg, 560 mg/kg, 600 mg/kg and 640 mg/kg, 10 ml/kg and administered orally to the rats.
At t=10, 20, 30, 45, 60, 90, 120 min, 2 h, 4 h, 6 h, 7 h, 8 h and 12 h after administration, 3 ml of blood was collected from the femoral vein of each animal and kept in a centrifuge tube at room temperature for 0.5 h. The blood was centrifuged at 3000 r/min for 15 min and the serum was taken for analysis.
Serum (0.5 ml) was added with 0.2 ml methanol and mixed with a vortex mixer for 1 min. The mixture was then centrifuged at 3000 r/min for 15 min. The supernatant was dried by nitrogen gas flow and the residue was dissolved in 0.2 ml methanol. The mixture was again centrifuged at 10000 r/min for 10 min and the supernatant subjected to HPLC analysis.
The samples were treated, applied and as stated in section 2.2, and the serum concentration of each compound was calculated by the one-point external standard method. The calculated data were processed using the 3P97 pharmacokinetics statistics software supplied by the Mathematics Committee of the China Pharmacology Association.

[3] abbreviates: 5 s after posterior pituitary injection.
[4] abbreviates: 15 s after posterior pituitary injection.
[5] abbreviates: 30 s after posterior pituitary injection.
Setting [6] is: 2 min after posterior pituitary injection.
The mark [7] stands for this setting: 5 min after posterior pituitary injection.
[8] abbreviates: 10 min after posterior pituitary injection.
Setting [9] is: oral suspension, SD rats, serum puerarin by HPLC, puerarin 400, 4ac 560, 5ac 600, 6ac 640 mg/kg.

As for `CC(C)NCC(O)COc1cccc2ccccc12.Cl` (stereo not shown) [+ve control, Propranolol hydrochloride, reference compound], the “Amplitude of T wave” value in data set [1] (setting [3]) is recorded as 16.11 ± 5.30 μV; in data set [1] (setting [4]), 18.51 ± 9.26 μV; in data set [1] (setting [5]), 22.10 ± 11.23 μV; in data set [1] (setting [6]) it was 30.41 ± 11.58 μV; in data set [1] (setting [7]), 26.62 ± 10.99 μV; in data set [1] (setting [8]) it was 22.09 ± 11.31 μV.
In the case of `CC(=O)OCC1OC(c2c(O)ccc3c(=O)c(-c4ccc(O)cc4)coc23)C(OC(C)=O)C(OC(C)=O)C1OC(C)=O` (stereo not shown) [Compound 4ac, 2″,3″,4″,6″-0-tetraacetylpuerarin], the “C(max) relative to that of puerarin” value in data set [2] (both, Sprague-Dawley, rat, in vivo, po) is on record as 1.90 folds. For the same compound, the “AUC compared with puerarin (t test)” value in data set [2] (rat, in vivo, po) is reported as “significantly greater”. In addition, the “AUC relative to that of puerarin” value in data set [2] (rat, in vivo, po) is given as 2.24 folds. Besides, the “Bioavailability compared with puerarin” value in data set [2] (rat, in vivo, po) is “higher than puerarin and other derivatives”. In addition, the “Pharmacokinetic compartment model fitted (3P97 software)” value in data set [2] (rat, in vivo, po) is on record as “one-compartment open model”. The “AUC(0-∞) = area under concentration-time curve” value (from here on “AUC(0-∞) = area”) in data set [2] (rat, in vivo, po, 640 mg/kg) is 6104.81 ± 275.29 (μg/ml)min. In data set [2] (rat, in vivo, po, 640 mg/kg), the “CL = total body clearance” value was 0.1030 ± 0.0163 mg/kg/min/µg/mL. For the same compound, the “Amplitude of T wave” value is 15.09 ± 7.62 μV in data set [1] (setting [3]); 23.23 ± 10.69 μV in data set [1] (setting [4]); 35.40 ± 10.93 μV in data set [1] (setting [5]); 36.51 ± 16.02 μV in data set [1] (setting [6]); 25.60 ± 14.23 μV in data set [1] (setting [7]); 25.41 ± 10.21 μV in data set [1] (setting [8]). Further, the “Effect against myocardial ischemia in rats induced by posterior pituitary injection” value (from here on “Effect against myocardial ischemia”) in data set [1] is given as “effective”.
`CC(=O)OCC1OC(c2c(OC(C)=O)ccc3c(=O)c(-c4ccc(O)cc4)coc23)C(OC(C)=O)C(OC(C)=O)C1OC(C)=O` (stereo not shown) [Compound 5ac, 7,2″,3″,4″,6″-0-pentaacetylpuerarin]: the “Pharmacokinetic compartment model fitted (3P97 software)” value in data set [2] (rat, in vivo, po) is on record as “two-compartment open model”. In data set [2] (rat, in vivo, po, 640 mg/kg), the “AUC(0-∞) = area” value is 4566.95 ± 762.64 (μg/ml)min. For the same compound, the “CL = total body clearance” value in data set [2] (rat, in vivo, po, 640 mg/kg) was determined as 0.1011 ± 0.0425 mg/kg/min/µg/mL. Besides, the “t1/2(a) = half-life of absorption” value in data set [2] (rat, in vivo, po, 640 mg/kg) is 0.368613 ± 0.311893 h. The “t1/2(β) = half-life of clearance” value in data set [2] (rat, in vivo, po, 640 mg/kg) is 7.0838 ± 4.228 h. Besides, the “Amplitude of T wave” value in data set [1] (setting [3]) is 19.09 ± 6.20 μV; in data set [1] (setting [4]), 29.42 ± 9.39 μV; in data set [1] (setting [5]), 37.61 ± 13.43 μV; in data set [1] (setting [6]) it was 40.11 ± 16.04 μV; in data set [1] (setting [7]), 24.50 ± 13.63 μV; in data set [1] (setting [8]), 24.39 ± 14.28 μV. The “Effect against myocardial ischemia” value in data set [1] is “effective”.
Consider `CC(=O)OC[C@H]1O[C@@H](c2c(OC(C)=O)ccc3c(=O)c(-c4ccc(OC(C)=O)cc4)coc23)[C@H](OC(C)=O)[C@@H](OC(C)=O)[C@@H]1OC(C)=O` [Compound 6ac, Hexa-0-acetyl puerarin], for which, in data set [2] (setting [9]), the “AUC(0-∞) = area” value is listed as 3149.69 ± 467.26 (μg/ml)min, the “C (max) = maximum concentration reached by the compound” value came out at 4932.4 ± 69.5 ng/mL, the “CL = total body clearance” value is 0.1696 ± 0.1206 mg/kg/min/µg/mL and the “T(peak) = time the compound takes to reach the absorption peak” value was found to be 81.39 ± 10.02 min. For the same compound, in data set [2] (setting [9]), the “t1/2(a) = half-life of absorption” value came to 1.86617 ± 1.811 h and the “t1/2(β) = half-life of clearance” value worked out at 44.4162 ± 6.3323 h. Besides, the “Pharmacokinetic compartment model fitted (3P97 software)” value in data set [2] (oral, SD rats) is on record as “two-compartment open model”. Moreover, in data set [1] (setting [3]), the “Amplitude of T wave” value stood at 16.33 ± 9.18 μV. Further, the “Amplitude of T wave” value in data set [1] (setting [4]) amounted to 29.09 ± 16.50 μV. Moreover, the “Amplitude of T wave” value in data set [1] (setting [5]) was 39.12 ± 15.21 μV. The “Amplitude of T wave” value in data set [1] (setting [6]) was 41.05 ± 15.60 μV. Further, in data set [1] (setting [7]), the “Amplitude of T wave” value is recorded as 29.14 ± 10.60 μV. For the same compound, in data set [1] (setting [8]), the “Amplitude of T wave” value was determined as 22.11 ± 9.81 μV. For the same compound, the “Effect against myocardial ischemia” value in data set [1] is “effective”.
The half-life is how long it takes for the measured level to halve. Low values mean rapid decline, high ones slow decline. With `O=c1c(-c2ccc(O)cc2)coc2c([C@@H]3O[C@H](CO)[C@@H](O)[C@H](O)[C@H]3O)c(O)ccc12` [Puerarin], the half-life was determined as 0.89 ± 0.189 h in data set [2] (both, Sprague-Dawley, rat, in vivo, po, 640 mg/kg, t1/2(a) = half-life of absorption) and 1.015 ± 0.00719 h in data set [2] (both, Sprague-Dawley, rat, in vivo, po, 640 mg/kg, t1/2(β) = half-life of clearance). Moreover, the “Pharmacokinetic compartment model fitted (3P97 software)” value in data set [2] (oral, SD rats) was “two-compartment open model”. The “AUC(0-∞) = area” value in data set [2] (rat, in vivo, po, 640 mg/kg) is recorded as 2729.94 ± 491.99 (μg/ml)min. Further, the “CL = total body clearance” value in data set [2] (rat, in vivo, po, 640 mg/kg) is 0.2032 ± 0.0541 mg/kg/min/µg/mL. The “Amplitude of T wave” value in data set [1] (setting [3]) came out at 18.06 ± 10.09 μV; in data set [1] (setting [4]), 25.69 ± 11.21 μV; in data set [1] (setting [5]), 31.22 ± 14.59 μV; in data set [1] (setting [6]), 39.20 ± 16.11 μV; in data set [1] (setting [7]), 29.10 ± 16.23 μV; in data set [1] (setting [8]) it was 25.01 ± 10.40 μV. In addition, the “Effect against myocardial ischemia” value in data set [1] was “effective”.
